# Data published in US20170226507A1, “COORDINATE CONTROL OF PATHOGENIC SIGNALING BY THE MIR-130/301 FAMILY IN PULMONARY HYPERTENSION AND FIBROPROLIFERATIVE DISEASES” (The Brigham and Women's Hospital, Inc., priority 2014, published 2017).
# System: PASMCs
# Assay: Contraction assay of PASMCs in matrigel
# Type: cell-based, human
# Conditions: conditioned media from transfected PAECs; rosiglitazone in PAECs; ambrisentan on PASMCs
# Description: (FIG. 40A) A schematic diagram of co-culture experiments: conditioned media from transfected PAECs (miRNA, anti-miRNA, tiny-LNA or siRNA under normoxic or hypoxic conditions) were filtered and applied onto naïve PASMCs cultured in matrigel. At specific times, PASMCs or PASMC-matrigel cultures were arrested and analyzed for STAT3 activation (phosphorylation) or contraction, respectively.
# 50000 PASMC were embedded in 100 ul of matrix gel as previous described (Gagiolli et al) and plated into well of a 96 well plate. After 1 h at 37° C., these matrices were overlaid with 100 ul of conditioned PAECs serum-free medium (transfected with siRNA, miRNA or anti-miRNA and supplemented with Ambriesentan 10 uM). Every 12 h, medium was changed and at day 4 the gels were photographed and the relative diameter of the well and the gel were measured using ImageJ. The percentage contraction was calculated using the formula 100*(well diameter−gel diamter)/well diameter. For the co-culture experiment, conditioned media from PAEC transfected as indicated were applied on PASMCs or Fibroblast previously starved (24 h). Cells were collected at different time and analyzed by western blotting.
substance,measurement,value
"tiny-LNA-130: fully LNA-modified tiny LNA oligonucleotide 5′-ATTGCACT-3′ (SEQ ID NO: 3) complementary to the seed region of the miR-130/301 family (all LNA, backbone and methylation of C not given here)",actinomyosin contraction of PASMCs,abrogated
